Active and inactive are the calls of the source. No rule for the calls is given here.
Tested on: CCRIS mutagenicity, Ames/micronucleus/aberration tests
Assay: CCRIS mutagenicity studies
Conditions: Test System: AMES SALMONELLA TYPHIMURIUM
[1] = Strain/Indicator: TA98, Metabolic Activation: NONE, Method: STANDARD PLATE
[2] = Strain/Indicator: TA98, Metabolic Activation: RAT, LIVER, S-9, AROCLOR 1254, Method: STANDARD PLATE
[3] = Strain/Indicator: TA100, Metabolic Activation: NONE, Method: STANDARD PLATE
[4] = Strain/Indicator: TA100, Metabolic Activation: RAT, LIVER, S-9, AROCLOR 1254, Method: STANDARD PLATE
[5] = Strain/Indicator: TA1537, Metabolic Activation: NONE, Method: STANDARD PLATE
[6] = Strain/Indicator: TA98, Metabolic Activation: NONE, Method: PREINCUBATION

C=CC(=O)OCCCCCOC(=O)C=C
mutagenic call [1]: inactive; negative | mutagenic call [2]: inactive; negative | mutagenic call (Strain/Indicator: TA98, Metabolic Activation: RAT, LIVER, S-9, SODIUM PHENOBARBITAL, Method: STANDARD PLATE): inactive; negative | mutagenic call [3]: inactive; negative | mutagenic call [4]: inactive; negative | mutagenic call (Strain/Indicator: TA100, Metabolic Activation: RAT, LIVER, S-9, SODIUM PHENOBARBITAL, Method: STANDARD PLATE): inactive; negative | mutagenic call (Strain/Indicator: TA1535, Metabolic Activation: NONE, Method: STANDARD PLATE): inactive; negative | mutagenic call (Strain/Indicator: TA1535, Metabolic Activation: RAT, LIVER, S-9, AROCLOR 1254, Method: STANDARD PLATE): inactive; negative | mutagenic call (Strain/Indicator: TA1535, Metabolic Activation: RAT, LIVER, S-9, SODIUM PHENOBARBITAL, Method: STANDARD PLATE): inactive; negative | mutagenic call [5]: inactive; negative | mutagenic call (Strain/Indicator: TA1537, Metabolic Activation: RAT, LIVER, S-9, AROCLOR 1254, Method: STANDARD PLATE): inactive; negative | mutagenic call (Strain/Indicator: TA1537, Metabolic Activation: RAT, LIVER, S-9, SODIUM PHENOBARBITAL, Method: STANDARD PLATE): inactive; negative | mutagenic call (Strain/Indicator: TA1538, Metabolic Activation: NONE, Method: STANDARD PLATE): inactive; negative | mutagenic call (Strain/Indicator: TA1538, Metabolic Activation: RAT, LIVER, S-9, AROCLOR 1254, Method: STANDARD PLATE): inactive; negative | mutagenic call (Strain/Indicator: TA1538, Metabolic Activation: RAT, LIVER, S-9, SODIUM PHENOBARBITAL, Method: STANDARD PLATE): inactive; negative

O=[N+]([O-])c1cccc(S(=O)(=O)OC[C@H]2CO2)c1
mutagenic call [3]: active; positive

CNC(=O)C=Cc1ccc([N+](=O)[O-])o1
mutagenic call [6]: active; positive

N[C@@H](CSc1c(Cl)c(Cl)c(Cl)c(Cl)c1Cl)C(=O)O
mutagenic call [6]: inactive; negative | mutagenic call (Strain/Indicator: TA98, Metabolic Activation: RAT, LIVER OR KIDNEY, MICROSOMES, Method: PREINCUBATION): inactive; negative | mutagenic call (Strain/Indicator: TA100, Metabolic Activation: NONE, Method: PREINCUBATION): inactive; negative | mutagenic call (Strain/Indicator: TA100, Metabolic Activation: RAT, LIVER OR KIDNEY, MICROSOMES, Method: PREINCUBATION): inactive; negative | mutagenic call (Strain/Indicator: TA102, Metabolic Activation: NONE, Method: PREINCUBATION): inactive; negative | mutagenic call (Strain/Indicator: TA102, Metabolic Activation: RAT, LIVER OR KIDNEY, MICROSOMES, Method: PREINCUBATION): inactive; negative | mutagenic call (Strain/Indicator: TA2638, Metabolic Activation: NONE, Method: PREINCUBATION): inactive; negative | mutagenic call (Strain/Indicator: TA2638, Metabolic Activation: RAT, LIVER OR KIDNEY, MICROSOMES, Method: PREINCUBATION): inactive; negative

COc1cc(NS(C)(=O)=O)ccc1Nc1c2ccccc2nc2ccc(N=[N+]=[N-])cc12
mutagenic call [5]: active; positive

c1ccc2c(c1)ccc1[nH]c3ccc4ccccc4c3c12
mutagenic call [1]: inactive; negative | mutagenic call (Strain/Indicator: TA98, Metabolic Activation: RAT, LIVER, S-9, 3-METHYLCHOLANTHRENE, Method: STANDARD PLATE): inactive; negative | mutagenic call [2]: inactive; negative | mutagenic call (Strain/Indicator: TA98, Metabolic Activation: RAT, LIVER, S-9, PHENOBARBITAL, Method: STANDARD PLATE): inactive; negative | mutagenic call (Strain/Indicator: TA100, Metabolic Activation: MOUSE, LIVER, S-9, BETA-NAPHTHOFLAVONE, Method: STANDARD PLATE): inactive; negative | mutagenic call (Strain/Indicator: TA100, Metabolic Activation: MOUSE, LIVER, S-9, PHENOBARBITAL, Method: STANDARD PLATE): inactive; negative | mutagenic call [3]: inactive; negative | mutagenic call (Strain/Indicator: TA100, Metabolic Activation: RABBIT, LIVER, S-9, BENZO[A]PYRENE, Method: STANDARD PLATE): inactive; negative | mutagenic call (Strain/Indicator: TA100, Metabolic Activation: RAT, LIVER, S-9, PHENOBARBITAL, Method: STANDARD PLATE): inactive; negative | mutagenic call (Strain/Indicator: TM677, Metabolic Activation: NONE, Method: PREINCUBATION): inactive; negative | mutagenic call (Strain/Indicator: TM677, Metabolic Activation: RAT, LIVER, S-9, 3-METHYLCHOLANTHRENE (1%), Method: PREINCUBATION): active; positive | mutagenic call (Strain/Indicator: TM677, Metabolic Activation: RAT, LIVER, S-9, 3-METHYLCHOLANTHRENE (10%), Method: PREINCUBATION): inactive; negative

CN(C)c1nc2c3cccnc3ccc2n1C
mutagenic call (Strain/Indicator: TA98, Metabolic Activation: RAT, LIVER, S-9, AROCLOR 1254, Method: PREINCUBATION): active; positive | mutagenic call (Strain/Indicator: TA100, Metabolic Activation: RAT, LIVER, S-9, AROCLOR 1254, Method: PREINCUBATION): active; positive

ClNc1ccc2c(c1)Cc1ccccc1-2
mutagenic call [2]: active; positive

COc1ccc(N=O)cc1
mutagenic call [1]: active; positive | mutagenic call [2]: active; positive | mutagenic call [3]: active; positive | mutagenic call [4]: active; positive
